Experimental data: US20260130919A1 (priority 2023, published 2026)

Key:
[1] = cumulative dose of doxorubicin >200 mg/m^2, CHOP regimen, aggressive Non-Hodgkin Lymphoma patients; cited from earlier work
[2] = tested on: PTCL; conditions: anthracycline-based regimens; cited from earlier work
[3] = tested on: peripheral T-cell lymphoma (PTCL); experiment: Randomized Phase 2 dose finding study of Pralatrexate-COP versus CHOP; set-up: species or system human; conditions: in vivo, iv
Protocol: This experiment was performed to identify the suitable dose of Pralatrexate that would be optimal in polychemotherapy for the next study (phase-III) based on safety and ORR (objective response rate) at 3 months. Initially, a lower dose of 20 mg/m^2 was compared to 30 mg/m^2 combined with COP. Therefore, these two dose levels were assigned randomly to 20 patients in addition to COP (Pralatrexate-COP). […] Dose effect on polyglutamate-Pralatrexate, DNA hypomethylation or H3-acetylation was evaluated in this part of the study as a surrogate for PD (pharmacodynamics) drug exposure. […] Further objective of dose finding study was also to evaluate the safety profiles for patients with newly diagnosed PTCL treated with Pralatrexate-COP compared to CHOP alone.
In the dose finding study, each investigational arm was having two dose levels which was compared with CHOP as reference. Treatment was randomized in three arms, Group 1a (Pralatrexate-COP) Pralatrexate 20 mg/m^2, Group 1b Pralatrexate 30 mg/m^2, all added to standard CHOP or COP respectively, and Group 2 for CHOP alone. […]

SMILES	patients with cardiac events [1]	survival impact of inclusion in a polychemotherapy regimen [2]	effect in combination with COP [3]
COc1cccc2c1C(=O)c1c(O)c3c(c(O)c1C2=O)C[C@@](O)(C(=O)CO)C[C@@H]3O[C@H]1C[C@H](N)[C@H](O)[C@H](C)O1 [Doxorubicin]	27%	not associated with a survival improvement	
C#CCC(Cc1cnc2nc(N)nc(N)c2n1)c1ccc(C(=O)N[C@@H](CCC(=O)O)C(=O)O)cc1 (mixture of isomers) [Pralatrexate]			synergistic effect
